test: RP, Waters ACQUITY UPLC HSS T3, 150 × 2.1 mm, 1.8 µm; A: water + 0.1% formic acid; B: acetonitrile + 0.1% formic acid; gradient (min/%B) 0/5 1/5 16/95 18/95; details: stereoisomer not certain

LC retention time [min]	Compound
4.1	CC(C)CC(NC(=O)C(N)Cc1ccccc1)C(=O)O (stereo not drawn)
0.457	NC(=O)NCCCC(N)C(=O)O (stereo not drawn)
3.4	CCC(C)C(N)C(=O)NC(CC(C)C)C(=O)O (stereo not drawn)
3.6	CC(C)CC(N)C(=O)NC(CC(C)C)C(=O)O (stereo not drawn)
1.14	O=C(O)CCCC(=O)O
2.33	O=C(O)CCCCC(=O)O
0.795	CCC(C)C(N)C(=O)O (stereo not drawn)
0.733	CC(C(=O)O)C(=O)O
3.39	O=C(O)CNC(=O)c1ccccc1
3.9	CCC(C)C(N)C(=O)NC(Cc1ccccc1)C(=O)O (stereo not drawn)
2.62	CC(C)CC(N)C(=O)N1CCCC1C(=O)O (stereo not drawn)
3.8	CCC(C)C(NC(=O)C(N)Cc1ccccc1)C(=O)O (stereo not drawn)
3	CC(C)C(NC(=O)C(N)Cc1ccccc1)C(=O)O (stereo not drawn)
0.643	CSCCC(N)C(=O)O (stereo not drawn)
0.795	CC(C)CC(N)C(=O)O (stereo not drawn)
3.3	CC(C)C(N)C(=O)NC(Cc1ccccc1)C(=O)O (stereo not drawn)
3.47	O=C(O)CCCCCC(=O)O
2.7	CC(C)CC(NC(=O)C(N)C(C)C)C(=O)O (stereo not drawn)
3.1	CCC(C)C(N)C(=O)NC(C(=O)O)C(C)CC (stereo not drawn)

Second part, the compound before the results:

Compound	LC retention time [min]
COc1cc2ccc(=O)oc2cc1OC1OC(CO)C(O)C(O)C1O (stereo not drawn)	3.3
CC(C)CC(N)C(=O)NC(Cc1ccccc1)C(=O)O (stereo not drawn)	4.2
NCCS(=O)(=O)O	0.446
O=c1[nH]cnc2c1ncn2C1OC(CO)C(O)C1O (stereo not drawn)	0.839
Cc1cn(C2CC(O)C(CO)O2)c(=O)[nH]c1=O (stereo not drawn)	1.6
CCCCCCCCC=CCCCCCCCC(=O)OCC(O)COP(=O)(O)OCC[N+](C)(C)C (stereo not drawn)	12
CC12CCC(=O)C=C1CCC1C2C(=O)CC2(C)C1CCC2(O)C(=O)CO (stereo not drawn)	6.61
NCc1c[nH]c2ccccc12	1.8
O=C1CCC(C(=O)O)N1 (stereo not drawn)	0.687
Nc1nc2c(ncn2C2OC(CO)C(O)C2O)c(=O)[nH]1 (stereo not drawn)	1.1
NCC(=O)NC(Cc1ccccc1)C(=O)O (stereo not drawn)	2.3
CSCCCCCCCC(N)C(=O)O (stereo not drawn)	4.6
CCCCCCCCCCCCCCCC(=O)OCC(O)COP(=O)([O-])OCC[N+](C)(C)C (stereo not drawn)	11.6
CC12CCC(=O)C=C1CCC1C2C(O)CC2(C)C1CCC2(O)C(=O)CO (stereo not drawn)	6.56
O=c1cc[nH]c(=O)[nH]1	0.638
O=Cc1c[nH]c2cccc(O)c12	5.1
COc1cc(CC2COC(c3ccc(O)c(OC)c3)C2CO)ccc1O (stereo not drawn)	5.6

Compound	LC retention time [min]
CC(C)CC(NC(=O)C(N)Cc1ccc(O)cc1)C(=O)O (stereo not drawn)	3.2
CC(CCC(=O)NCC(=O)O)C1CCC2C3C(O)CC4CC(O)CCC4(C)C3CC(O)C12C (stereo not drawn)	7.92
O=C(O)c1c[nH]c2ccccc12	4.7
O=C(O)C1CCCN1 (stereo not drawn)	0.482
CC(C)CC(N)C(=O)NC(Cc1ccc(O)cc1)C(=O)O (stereo not drawn)	2.8
COc1cc(C=CCO)ccc1OC1OC(CO)C(O)C(O)C1O (stereo not drawn)	3
NC(N)=NCCCC(N)C(=O)O (stereo not drawn)	0.413
O=Cc1c[nH]c2ccccc12	4.8
Cc1cc2nc3c(=O)[nH]c(=O)nc-3n(CC(O)C(O)C(O)CO)c2cc1C (stereo not drawn)	3.92
Nc1ncnc2nc[nH]c12	0.525
Cn1c(=O)c2c(ncn2C)n(C)c1=O	3.46
CC(CCC(=O)O)C1CCC2C3CCC4CC(O)CCC4(C)C3CC(O)C12C (stereo not drawn)	10.7
CC(CCC(=O)O)C1CCC2C3C(O)CC4CC(O)CCC4(C)C3CC(O)C12C (stereo not drawn)	8.94
CSCCCCCCCCC(N)C(=O)O (stereo not drawn)	5.4
COc1cc2ccc(=O)oc2cc1O	4.5
COn1cc(CN)c2ccccc21	3.7
O=C(O)C1Cc2c([nH]c3ccccc23)CN1 (stereo not drawn)	3.1
